Test system: carrageenin plantar oedema
Assay: Antiinflammatory activity, inhibition of the carrageenin plantar oedema in the rat
Type: in vivo, male Sprague-Dawley rats
Settings: intravenously, dose 2.5 mg/Kg, paw volume 3 hours after carrageenin
Experimental: The antiinflammatory action of the compounds of the present invention is determined by a standard test based on the procedure by Winter C.A. et al. (Proc. Soc. Exp. Biol. Med., 111, 544 (1962)). In this test, male Sprague-Dawley rats of 90-110 g are used, which are randomized in groups of 5 animals. The compound under test is administered intravenously in the tail lateral vein. The compound is suspended in Tween 20 (2-3% final concentration) and physiological serum is added to obtain a solution of the desired concentration of the compound, the administered volume being 2.5 ml/kg. Immediately after the injection of the compound, a subplantar injection of 0.1 ml of 1% carrageenin in physiological serum is performed in the right paw of the rat. In each test, a control group is systematically used, which is administered with the vehicle only. The paw inflammation is evaluated by measuring its volume with a water plethysmograph 1, 3 and 6 hours after inducing the inflammation. The determination of the inhibition percentage of the inflammation is calculated by the following formula: % Inhibition = (1 - A/B) x 100 [formula] wherein A is the average of the swelling volume in the group of treated animals and B is the average of the swelling volume in the control group.
For comparison purposes, the inhibition values of indomethacin and ketoprofen are also included as reference. The inhibition value found for Compound A, a structural analogous of the compounds described in the present patent, is also shown.

Molecule | % Inhibition (3 hours) [%]
CCCCCCCCCCS(=O)(=O)NC(CCCCCC)COP(=O)(O)OCCOCc1ccccc1 (stereo not shown) [Compound 26, 2-Decanesulfonylaminooctanol-1-phospho-2-benzyloxyethanol] | 26

Same assay, conditions: intravenously, dose 5 mg/Kg, paw volume 3 hours after carrageenin

Molecule | % Inhibition (3 hours) [%]
(S)-2-Decanesulfonylaminohexanol-1-phospho-2-benzyloxyethanol [Compound 30] | 12
CCCCCCCCCCCC(=O)NC(CCCCCC)COP(=O)(O)CCCC (stereo not shown) [Compound 39, 2-Dodecanoylaminooctyl butylphosphonate] | 17
CCCCCCCCCCS(=O)(=O)N[C@H](CCCCCC)COP(=O)(O)OCCOCc1ccccc1 [Compound 27, (R)-2-Decanesulfonylaminooctanol-1-phospho-2-benzyloxyethanol] | 36
CCCCCCCCCCS(=O)(=O)N[C@@H](CCCCCC)COP(=O)(O)OCCOCc1ccccc1 [Compound 28, (S)-2-Decanesulfonylaminooctanol-1-phospho-2-benzyloxyethanol] | 19
CCCCCCCCCCS(=O)(=O)NC(CCCCCC)COP(=O)(O)CCCCc1ccccc1 (stereo not shown) [Compound 38, 2-Decanesulfonaminooctyl (4-phenylbutyl)phosphonate] | 23
CC(C(=O)O)c1cccc(C(=O)c2ccccc2)c1 (stereo not shown) [Ketoprofen, ketoprofen, reference compound] | 37
CCCCCCC(COP(=O)(O)OCCOCc1ccccc1)NS(=O)(=O)CCCc1ccccc1 (stereo not shown) [Compound 32, 2-(3-Phenylpropanesulfonylamino)octanol-1-phospho-2-benzyloxyethanol] | 35
COc1ccc2c(c1)c(CC(=O)O)c(C)n2C(=O)c1ccc(Cl)cc1 [Indomethacin, indomethacin, reference compound] | 37
CCCCCCCCCCS(=O)(=O)NC(CCCCCC)COP(=O)(O)OCCOCc1ccccc1 (stereo not shown) [Compound 26, 2-Decanesulfonylaminooctanol-1-phospho-2-benzyloxyethanol] | 37
(R)-2-Decanesulfonylaminohexanol-1-phospho-2-benzyloxyethanol [Compound 29] | 27

Same assay, conditions: intravenously, dose 10 mg/Kg, paw volume 3 hours after carrageenin

Molecule | % Inhibition (3 hours) [%]
CCCCCCCCCCCC(=O)NC(CCCCCC)COP(=O)(O)OCCOCc1ccccc1 (stereo not shown) [Compound A, 2-dodecanoylaminooctanol-1-phospho-2-benzyloxyethanol, reference compound] | 14
CCCCCCCCCCS(=O)(=O)NC(CCCCCC)COP(=O)(O)OCCOCc1ccccc1 (stereo not shown) [Compound 26, 2-Decanesulfonylaminooctanol-1-phospho-2-benzyloxyethanol] | 41
